Data as given in article PMC7372189 (Frontiers in Pharmacology, 2020).
Where two headings read alike, the source gives them in different places.

Tests used:
TRPV1 channel = molecular target: T1, TRPV1 channel (Rattus norvegicus, UniProt O35433); assay: Two-electrode voltage clamp (TEVC) in Xenopus oocytes expressing TRPV1 channels; type: cell-based; details: for maximal effect (Ix/Icapsaicin): Imax relative to current in saturating capsaicin
T1 construct: expressed in transfected cells; host or cells: Xenopus laevis oocytes injected with in vitro transcribed TRPV1 cRNA
T1 sequence (O35433 whole entry): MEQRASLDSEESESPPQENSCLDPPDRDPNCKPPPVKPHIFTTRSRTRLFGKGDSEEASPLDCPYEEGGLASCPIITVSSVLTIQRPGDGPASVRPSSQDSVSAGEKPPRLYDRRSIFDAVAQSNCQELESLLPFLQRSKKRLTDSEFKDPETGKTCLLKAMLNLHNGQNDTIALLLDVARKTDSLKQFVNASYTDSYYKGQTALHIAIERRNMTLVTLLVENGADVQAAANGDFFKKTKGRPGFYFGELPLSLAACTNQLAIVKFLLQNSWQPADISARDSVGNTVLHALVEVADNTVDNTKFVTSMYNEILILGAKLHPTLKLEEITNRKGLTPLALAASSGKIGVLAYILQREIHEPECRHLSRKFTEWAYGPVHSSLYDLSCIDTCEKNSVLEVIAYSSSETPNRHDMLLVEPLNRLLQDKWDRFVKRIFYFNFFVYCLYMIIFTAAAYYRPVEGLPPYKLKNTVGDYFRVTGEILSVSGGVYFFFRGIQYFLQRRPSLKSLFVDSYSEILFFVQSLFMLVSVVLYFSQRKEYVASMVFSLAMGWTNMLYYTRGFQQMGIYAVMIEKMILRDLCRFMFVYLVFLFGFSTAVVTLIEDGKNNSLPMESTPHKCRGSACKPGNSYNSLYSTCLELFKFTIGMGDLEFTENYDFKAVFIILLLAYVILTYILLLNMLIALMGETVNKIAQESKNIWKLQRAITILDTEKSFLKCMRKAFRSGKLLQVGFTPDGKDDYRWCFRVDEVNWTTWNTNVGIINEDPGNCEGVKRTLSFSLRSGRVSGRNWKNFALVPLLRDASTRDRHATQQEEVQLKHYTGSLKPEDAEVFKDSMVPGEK

[1] = system: tactile allodynia induced by intra-plantar carrageenan; assay: Carrageenan model of inflammatory pain, tactile allodynia measured with von Frey filaments after topical application; type: in vivo, Sprague–Dawley rats; details: for Effect duration / Time of maximal analgesia / Time to first effect (first significant analgesic effect): after topical application; for Concentration at maximal analgesia / ED50 of maximal effect / Maximal percentage of analgesia attained: topical in cream; for ED50 of maximal effect: extrapolated from linear fit of %MPE at time of maximal analgesia; for Maximal percentage of analgesia attained: relative to cream (0%) and saline (100%) controls
Method: Male Sprague–Dawley rats (approximately 200–300 g body weight) were used. Food and water were supplied ad libitum and the animals were kept in a 12 h light–dark cycle in their home cages throughout the study. All procedures were in accordance with the U.S. National Institutes of Health guidelines and were approved by the bioethical Committee of the Universidad Andres Bello, Acta 11/2016.
2% λ-Carrageenan (Santa Cruz Biotechnology) was administered subcutaneously to induce tactile allodynia according to previous studies ([Yoshimura and Yonehara, 2001]; [Fehrenbacher et al., 2012]). Capsaicin was obtained from Sigma. Compounds 1, 2, and 3 were obtained from the National Cancer Institute. […] Novo base moisturizing cream (Charles Lasserre) was used as vehicle for all tested compounds including capsaicin and was used alone as vehicle control. The different concentrations used can be found in Table 3.
Rats were randomly assigned into the following groups for all compounds: EC50, 10-fold EC50, 100-fold EC50, 1,000-fold EC50, a control group treated with cream only and a control group for 2% λ-Carrageenan in which saline was injected instead of λ-Carrageenan.
The λ-Carrageenan model for inflammatory pain was used to induce mechanical allodynia lasting for less than 24 h, as reported elsewhere ([Yoshimura and Yonehara, 2001]; [Fehrenbacher et al., 2012]). In short, animals were injected with 100 µl of 2% λ-Carrageenan diluted in saline, or saline alone as vehicle control, into the left hind paw. One hour later, capsaicin or one of the three compounds dissolved in cream was administered on the plantar surface until fully absorbed using a cotton swab. Then the rat was placed in the test chamber and acclimated for 5 min.
The day before the experiments, tactile thresholds were measured in all animals to attain a baseline and to ensure normal sensitivity to tactile stimuli. On the day of the experiment, the cream that contained the compounds was applied only once, 5 min before the evaluation began, and the effects of each compound was measured over time, once per hour, for eight consecutive hours. Von Frey filaments were used to measure plantar mechanical sensitivity and inflammatory allodynia. Briefly, the rats were placed into the arena with a mesh floor and after the 5-min habituation, were tested using von Frey filaments. The following von Frey filaments were applied against the plantar surface: 52.2 g (512 mN), 26.1 g (256 mN), 13.0 g (128 mN), 6.52 g (64 mN), 3.26 g (32 mN). To measure tactile response, the up-down method was used ([Dixon, 1980]), with slight modifications: the starting filament (13.0 g) was applied perpendicularly to the plantar surface of the hind paw until it buckled for 3 s or until the rat withdrew its foot. If the rat responded to the filament, the procedure was repeated with the smaller filament (6.52 g) and then repeated sequentially until the smallest filament that elicits a response was identified. […] To confirm that the identified filament was the smallest that could elicit a response, the filament was changed to the next smaller filament with no response and then increased again to the filament that produced a response. The responses (X) and lack of responses (0) were recorded to obtain the tabular values from [Dixon (1980)], corresponding to:
Data from von Frey filaments was obtained as a dose–response curve for each compound over the course of 8 h. All groups were tested for normality and a two-way ANOVA with Bonferroni post hoc test was used to analyze differences. Differences were considered significant when p < 0.05 and averages are shown ± standard error of the mean (SE).
The paw withdrawal threshold (PWT) for each time point was calculated by using the following equation proposed by [Dixon, 1980]: […]

[2] = higher concentrations than 10xEC50

Row | Structure (SMILES) | maximal effect (Ix/Icapsaicin) (TRPV1 channel) | Effect duration [1] [h] | Time of maximal analgesia [1] [h] | Time to first effect (first significant analgesic effect) [1] | Concentration at maximal analgesia [1] [µM] | ED50 of maximal effect [1] [nM] | Maximal percentage of analgesia attained [1] [%] | EC50 (TRPV1 channel; read-out: EC50) [nM] | Analgesic effect relative to vehicle, significance of tactile thresholds (von Frey) ([1]; Time 1 h, x1000 EC50) | Analgesic effect relative to vehicle, significance of tactile thresholds (von Frey) ([1]; Time 2 h, x100 EC50) | Analgesic effect relative to vehicle, significance of tactile thresholds (von Frey) ([1]; Time 2 h, x1000 EC50) | Analgesic effect relative to vehicle, significance of tactile thresholds (von Frey) ([1]; Time 3 h, x1000 EC50) | Analgesic effect relative to vehicle, significance of tactile thresholds (von Frey) ([1]; Time 4 h, x100 EC50) | Analgesic effect relative to vehicle, significance of tactile thresholds (von Frey) ([1]; Time 4 h, x1000 EC50) | Analgesic effect relative to vehicle, significance of tactile thresholds (von Frey) ([1]; Time 7 h, x100 EC50) | Analgesic effect relative to vehicle, significance of tactile thresholds (von Frey) ([1]; Time 7 h, x1000 EC50) | Analgesic effect relative to vehicle, significance of tactile thresholds (von Frey) ([1]; Time 8 h, x100 EC50) | Analgesic effect relative to vehicle, significance of tactile thresholds (von Frey) ([1]; Time 8 h, x1000 EC50) | Analgesic effect relative to vehicle, significance of tactile thresholds (von Frey) ([1]; Time 9 h, x100 EC50) | Analgesic effect relative to vehicle, significance of tactile thresholds (von Frey) ([1]; Time 9 h, x1000 EC50) | other results
1 | COc1cc(CNC(=O)CCCC/C=C/C(C)C)ccc1O [Capsaicin, reference compound] | 1 | 2 | 4 | Hour 3 h | 44 | 86900 | 86 | – | – | – | – | – | – | – | – | – | – | – | – | – | Time to first effect (first significant analgesic effect) ([1]; listed as capsaicin): 3 h
2 | COc1cc(C2C(C(=O)OC3CCCC3)=C(C)NC3=C2C(=O)CC(c2ccc(OC)c(OC)c2)C3)ccc1O (stereo not drawn) [Compound 1] | 0.8 | 8 | 3 | – | 53 | 37700 | 83 | 53 ± 6 | ** (**p < 0.01) | ** (**p < 0.01) | *** (***p < 0.001) | **** (****p < 0.0001) | * (*p < 0.05) | *** (***p < 0.001) | *** (***p < 0.001) | *** (***p < 0.001) | ** (**p < 0.01) | *** (***p < 0.001) | ** (**p < 0.01) | ** (**p < 0.01) | Duration of significant analgesic effect ([1]; 10xEC50): 8 h; Time of first significant analgesic effect compared to vehicle ([1]; 10xEC50): 1 h; Analgesic effect relative to vehicle, significance of tactile thresholds (von Frey) ([1]; Time 1 h, x10 EC50): * (*p < 0.05); Analgesic effect relative to vehicle, significance of tactile thresholds (von Frey) ([1]; Time 1 h, x100 EC50): * (*p < 0.05); Analgesic effect relative to vehicle, significance of tactile thresholds (von Frey) ([1]; Time 2 h, x10 EC50): **** (****p < 0.0001); Analgesic effect relative to vehicle, significance of tactile thresholds (von Frey) ([1]; Time 3 h, x10 EC50): **** (****p < 0.0001); Analgesic effect relative to vehicle, significance of tactile thresholds (von Frey) ([1]; Time 3 h, x100 EC50): ** (**p < 0.01); Analgesic effect relative to vehicle, significance of tactile thresholds (von Frey) ([1]; Time 4 h, x10 EC50): *** (***p < 0.001); Analgesic effect relative to vehicle, significance of tactile thresholds (von Frey) ([1]; Time 5 h, x10 EC50): **** (****p < 0.0001); Analgesic effect relative to vehicle, significance of tactile thresholds (von Frey) ([1]; Time 5 h, x100 EC50): ** (**p < 0.01); Analgesic effect relative to vehicle, significance of tactile thresholds (von Frey) ([1]; Time 5 h, x1000 EC50): *** (***p < 0.001); Analgesic effect relative to vehicle, significance of tactile thresholds (von Frey) ([1]; Time 6 h, x10 EC50): ** (**p < 0.01); Analgesic effect relative to vehicle, significance of tactile thresholds (von Frey) ([1]; Time 6 h, x100 EC50): ** (**p < 0.01); Analgesic effect relative to vehicle, significance of tactile thresholds (von Frey) ([1]; Time 6 h, x1000 EC50): *** (***p < 0.001); Analgesic effect relative to vehicle, significance of tactile thresholds (von Frey) ([1]; Time 7 h, x10 EC50): ** (**p < 0.01); Analgesic effect relative to vehicle, significance of tactile thresholds (von Frey) ([1]; Time 8 h, x10 EC50): * (*p < 0.05); Duration of significant analgesic effect [1, 2]: ≥ 9 h; Time of first significant analgesic effect compared to vehicle [1, 2]: 1 h
3 | Cc1cccc(NC(=O)C2CCCN(C(=O)OCc3ccccc3)C2)c1 (stereo not drawn) [Compound 2] | 0.73 | 3 | 3 | – | 53 | 6800 | 100 | 53 ± 4.3 | *** (***p < 0.001) | * (*p < 0.05) | ** (**p < 0.01) | *** (***p < 0.001) | * (*p < 0.05) | * (*p < 0.05) | ** (**p < 0.01) | ** (**p < 0.01) | – | ** (**p < 0.01) | – | – | Time of first significant analgesic effect compared to vehicle ([1]; 100xEC50): 2 h; Duration of significant analgesic effect ([1]; higher concentrations than 100xEC50): 3 h
4 | COc1ccc(C(=O)NNC(=O)CSc2nnc(-c3ccc(C)cc3)n2C)cc1 [Compound 3] | 0.89 | 2 | 7 | Hour 7 h | 92 | 139300 | 75 | 92 ± 10 | – | – | – | – | – | – | – | * (*p < 0.05) | * (*p < 0.05) | * (*p < 0.05) | * (*p < 0.05) | * (*p < 0.05) | Time to first effect (first significant analgesic effect) ([1]; listed as compound 3): 7 h
5 | C=C(C)[C@]12C[C@@H](C)[C@@]34O[C@](Cc5ccccc5)(O[C@@H]1[C@@H]3C=C(COC(=O)Cc1ccc(O)c(OC)c1)C[C@]1(O)C(=O)C(C)=C[C@@H]41)O2 [Resiniferatoxin, reference compound] | – | – | – | – | – | – | – | – | – | – | – | – | – | – | – | – | – | – | – | – | EC50 (TRPV1 channel): 0.7 nM
